Assay results published in patent US11331369B2, “Endoparasitic depsipeptides” (Zoetis Services LLC, priority 2017, dated 2022).

Experiments:
[1] = tested on: third stage larvae of Haemonchus contortus; assay: Haemonchus contortus L3 (HcL3) Assay; format: cell-based; conditions: 96 h, read-out: HcL3 Minimum Effective Dose (MED)
[2] = tested on: 4th stage larvae (L4) of Dirofilaria immitis; assay: Dirofilaria immitis, L4 Stage (DiL4) In Vitro Assay; format: cell-based; conditions: Dirofilaria immitis, 72 h, read-out: DiL4 Minimum Effective Dose (MED), approximately 72 hours incubation; L4 larvae assessed for survival or paralysis

Structure (SMILES)	minimal effective concentration [1] [µM]	minimal effective concentration [2] [µM]
CCc1ncnn1Cc1ccc(C[C@H]2OC(=O)[C@H](CC(C)C)N(C)C(=O)[C@@H](C)OC(=O)[C@H](CC(C)C)N(C)C(=O)[C@@H](Cc3ccc(Cn4ncnc4CC)cc3)OC(=O)[C@H](CC(C)C)N(C)C(=O)[C@@H](C)OC(=O)[C@H](CC(C)C)N(C)C2=O)cc1 [Example 9-50, (3S,6R,9S,12R,15S,18R,21S,24R)-6,18-bis(4-((5-ethyl-1H-1,2,4-triazol-1-yl)methyl)benzyl)-3,9,15,21-tetraisobutyl-4,10,12,16,22,24-hexamethyl-1,7,13,19-tetraoxa-4,10,16,22-tetraazacyclotetracosan-2,5,8,11,14,17,20,23-octaone]	1 to 10	0.001 to 0.01
CC(C)C[C@H]1C(=O)O[C@H](Cc2ccc(Cn3ncnc3C3CCC3)cc2)C(=O)N(C)[C@@H](CC(C)C)C(=O)O[C@H](C)C(=O)N(C)[C@@H](CC(C)C)C(=O)O[C@H](Cc2ccc(Cn3ncnc3C3CCC3)cc2)C(=O)N(C)[C@@H](CC(C)C)C(=O)O[C@H](C)C(=O)N1C [Example 9-54, (3S,6R,9S,12R,15S,18R,21S,24R)-6,18-bis(4-((5-cyclobutyl-1H-1,2,4-triazol-1-yl)methyl)benzyl)-3,9,15,21-tetraisobutyl-4,10,12,16,22,24-hexamethyl-1,7,13,19-tetraoxa-4,10,16,22-tetraazacyclotetracosan-2,5,8,11,14,17,20,23-octaone]	1 to 10	0.001 to 0.01
CC(C)C[C@H]1C(=O)O[C@H](Cc2ccc(Cn3ncnc3CC3CC3)cc2)C(=O)N(C)[C@@H](CC(C)C)C(=O)O[C@H](C)C(=O)N(C)[C@@H](CC(C)C)C(=O)O[C@H](Cc2ccc(Cn3ncnc3CC3CC3)cc2)C(=O)N(C)[C@@H](CC(C)C)C(=O)O[C@H](C)C(=O)N1C [Example 9-55, (3S,6R,9S,12R,15S,18R,21S,24R)-6,18-bis(4-((5-(cyclopropylmethyl)-1H-1,2,4-triazol-1-yl)methyl)benzyl)-3,9,15,21-tetraisobutyl-4,10,12,16,22,24-hexamethyl-1,7,13,19-tetraoxa-4,10,16,22-tetraazacyclotetracosan-2,5,8,11,14,17,20,23-octaone]	≤ 1	0.0001 to 0.001
CC(C)C[C@H]1C(=O)O[C@H](Cc2ccc(Cn3cccc3C#N)cc2)C(=O)N(C)[C@@H](CC(C)C)C(=O)O[C@H](C)C(=O)N(C)[C@@H](CC(C)C)C(=O)O[C@H](Cc2ccccc2)C(=O)N(C)[C@@H](CC(C)C)C(=O)O[C@H](C)C(=O)N1C [Example 10-13, 1-[[4-[[(2R,5S,8R,11S,14R,17S,20R,23S)-14-benzyl-5,11,17,23-tetraisobutyl-4,8,10,16,20,22-hexamethyl-3,6,9,12,15,18,21,24-octaoxo-1,7,13,19-tetraoxa-4,10,16,22-tetrazacyclotetracos-2-yl]methyl]phenyl]methyl]pyrrole-2-carbonitrile]	1 to 10	0.0001 to 0.001
CC(C)C[C@H]1C(=O)O[C@H](Cc2ccc(Cn3c(C#N)ccc3C#N)cc2)C(=O)N(C)[C@@H](CC(C)C)C(=O)O[C@H](C)C(=O)N(C)[C@@H](CC(C)C)C(=O)O[C@H](Cc2ccccc2)C(=O)N(C)[C@@H](CC(C)C)C(=O)O[C@H](C)C(=O)N1C [Example 10-31, 1-(4-(((2R,5S,8R,11S,14R,17S,20R,23S)-14-benzyl-5,11,17,23-tetraisobutyl-4,8,10,16,20,22-hexamethyl-3,6,9,12,15,18,21,24-octaoxo-1,7,13,19-tetraoxa-4,10,16,22-tetraazacyclotetracosan-2-yl)methyl)benzyl)-1H-pyrrole-2,5-dicarbonitrile]	1 to 10	≤ 0.0001
